Results taken from the supplement of paper PMC10307832.

What was measured:
Experiment in all cases: relative viability (nuclei count vs DMSO), 5 days (fraction); higher = more cells survive
JZL-184 + Navitoclax = compound: C1CN(CCC1C(C2=CC3=C(C=C2)OCO3)(C4=CC5=C(C=C4)OCO5)O)C(=O)OC6=CC=C(C=C6)[N+](=O)[O-] [JZL-184] + CC1(C)CCC(c2ccc(Cl)cc2)=C(CN2CCN(c3ccc(C(=O)NS(=O)(=O)c4ccc(N[C@H](CCN5CCOCC5)CSc5ccccc5)c(S(=O)(=O)C(F)(F)F)c4)cc3)CC2)C1 [Navitoclax] (partner 0.5 µM)
Method in brief: (§1)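 Lung cancer cell lines in 1536-well plates got either a single drug or a fixed anchor-drug dose together with five library-drug doses (not always all listed) in √10 steps, by pin tool, on the day after seeding. Nuclei were counted after 5 days, and relative viability is the treated-to-vehicle ratio of nuclei counts. Values are medians of duplicate plates.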

JZL-184 + Foretinib = compound: C1CN(CCC1C(C2=CC3=C(C=C2)OCO3)(C4=CC5=C(C=C4)OCO5)O)C(=O)OC6=CC=C(C=C6)[N+](=O)[O-] [JZL-184] + COc1cc2c(Oc3ccc(NC(=O)C4(C(=O)Nc5ccc(F)cc5)CC4)cc3F)ccnc2cc1OCCCN1CCOCC1 [Foretinib] (partner 0.25 µM)
Method in brief: as §1

JZL-184 + OSI-027 = compound: C1CN(CCC1C(C2=CC3=C(C=C2)OCO3)(C4=CC5=C(C=C4)OCO5)O)C(=O)OC6=CC=C(C=C6)[N+](=O)[O-] [JZL-184] + COc1cccc2cc(-c3nc([C@H]4CC[C@H](C(=O)O)CC4)n4ncnc(N)c34)[nH]c12 [OSI-027] (partner 0.5 µM)
Method in brief: as §1

JZL-184 + Tozasertib = compound: C1CN(CCC1C(C2=CC3=C(C=C2)OCO3)(C4=CC5=C(C=C4)OCO5)O)C(=O)OC6=CC=C(C=C6)[N+](=O)[O-] [JZL-184] + Cc1cc(Nc2cc(N3CCN(C)CC3)nc(Sc3ccc(NC(=O)C4CC4)cc3)n2)n[nH]1 [Tozasertib] (partner 0.1 µM)
Method in brief: as §1

JZL-184 + Pemetrexed = compound: C1CN(CCC1C(C2=CC3=C(C=C2)OCO3)(C4=CC5=C(C=C4)OCO5)O)C(=O)OC6=CC=C(C=C6)[N+](=O)[O-] [JZL-184] + Nc1nc2[nH]cc(CCc3ccc(C(=O)N[C@@H](CCC(=O)O)C(=O)O)cc3)c2c(=O)[nH]1 [Pemetrexed] (partner 0.2 µM)
Method in brief: as §1

Cell Line	relative viability (JZL-184 + Navitoclax; first compound 0.04 µM)	relative viability (JZL-184 + Navitoclax; first compound 0.4 µM)	relative viability (JZL-184 + Navitoclax; first compound 1.265 µM)	relative viability (JZL-184 + Navitoclax; first compound 4 µM)	relative viability (JZL-184 + Foretinib; first compound 0.04 µM)	relative viability (JZL-184 + Foretinib; first compound 0.4 µM)	relative viability (JZL-184 + Foretinib; first compound 1.265 µM)	relative viability (JZL-184 + Foretinib; first compound 4 µM)	relative viability (JZL-184 + OSI-027; first compound 0.04 µM)	relative viability (JZL-184 + OSI-027; first compound 0.4 µM)	relative viability (JZL-184 + OSI-027; first compound 1.265 µM)	relative viability (JZL-184 + OSI-027; first compound 4 µM)	relative viability (JZL-184 + Tozasertib; first compound 0.04 µM)	relative viability (JZL-184 + Tozasertib; first compound 0.4 µM)	relative viability (JZL-184 + Tozasertib; first compound 1.265 µM)	relative viability (JZL-184 + Tozasertib; first compound 4 µM)	relative viability (JZL-184 + Pemetrexed; first compound 0.04 µM)	relative viability (JZL-184 + Pemetrexed; first compound 0.4 µM)	relative viability (JZL-184 + Pemetrexed; first compound 1.265 µM)	relative viability (JZL-184 + Pemetrexed; first compound 4 µM)
201T	1.23	1.19	1.17	1.18	1.15	1.09	1.15	1.11	0.754	0.685	0.744	0.701	1.02	0.981	0.988	0.862	0.355	0.351	0.348	0.293
A549	1.18	1	1.24	1.23	1.23	0.942	1.06	0.976												
A-427	1.02	0.879	0.962	0.992	1.06	1.03	1.33	0.972	0.469	0.435	0.479	0.474	0.194	0.186	0.264	0.239	1.03	0.971	1.06	0.886
ABC-1					1.23	0.986	1.12	1.09	0.644	0.441	0.667	0.448	0.195	0.202	0.174	0.164				
BEN	0.0556	0.0635	0.0659	0.0756	0.666	0.772	0.78	0.846	0.289	0.254	0.324	0.296	0.513	0.536	0.506	0.456	0.811	0.787	0.887	1.02
CAL-12T	1.33	1.1	1.15	1.15	1.22	1.07	1.07	1.2	0.897	0.648	0.673	0.614	0.336	0.269	0.336	0.228	1.4	0.997	1.22	1.08
COR-L23	1.13	0.87	1.05	0.968	0.978	0.881	1.01	0.902	0.964	0.783	0.806	0.64	0.197	0.181	0.215	0.143	0.195	0.191	0.179	0.192
COR-L 105	0.878	0.813	0.905	0.585	0.989	0.975	0.995	1.22	0.908	0.731	0.744	0.703	0.381	0.398	0.381	0.319	1.23	1.07	1.18	1.09
ChaGo-K-1	1.47	0.896	1.29	0.962	0.981	0.872	0.96	0.911	0.637	0.63	0.635	0.555	0.265	0.224	0.211	0.235	0.262	0.257	0.256	0.266
EKVX	1	0.946	0.922	0.895	0.677	0.752	0.925	0.755	0.752	0.536	0.669	0.704	0.39	0.408	0.423	0.351	0.364	0.326	0.352	0.403
EMC-BAC-2	1.22	1.12	1.17	1.11	1.09	0.957	1.09	0.947	0.368	0.375	0.396	0.343	0.296	0.282	0.285	0.287	0.452	0.423	0.454	0.473
EPLC-272H	1.12	1.11	1.2	1.25	0.773	0.668	0.907	0.712	0.311	0.259	0.35	0.351	0.59	0.277	0.31	0.198	0.316	0.22	0.351	0.319
H3255	0.589	0.492	0.678	0.522	0.832	0.684	0.95	0.987	0.563	0.52	0.557	0.589	0.613	0.65	0.747	0.623	0.632	0.49	0.522	0.553
HARA	1.19	1.06	1.15	1.14	1.16	0.569	0.968	0.924	0.547	0.444	0.614	0.456	0.134	0.0806	0.107	0.108	0.289		0.268	0.254
HCC-15	0.754	0.704	0.759	0.703	1.25	1.01	1.11	1.03	0.727	0.635	0.742	0.677	0.521	0.415	0.407	0.331	0.222	0.217	0.212	0.23
HCC-44	1.02	0.953	0.954	0.876					0.628	0.366	0.689	0.471	1.27	0.805	1.26	0.983	0.708	0.621	0.688	0.64
HCC-78	0.709	0.75	0.724	0.551	0.558	0.526	0.515	0.475	0.348	0.326	0.379	0.382	0.402	0.413	0.388	0.318	0.895		0.875	0.919

Cell Line	relative viability (JZL-184 + Navitoclax; first compound 0.04 µM)	relative viability (JZL-184 + Navitoclax; first compound 0.4 µM)	relative viability (JZL-184 + Navitoclax; first compound 1.265 µM)	relative viability (JZL-184 + Navitoclax; first compound 4 µM)	relative viability (JZL-184 + Foretinib; first compound 0.04 µM)	relative viability (JZL-184 + Foretinib; first compound 0.4 µM)	relative viability (JZL-184 + Foretinib; first compound 1.265 µM)	relative viability (JZL-184 + Foretinib; first compound 4 µM)	relative viability (JZL-184 + OSI-027; first compound 0.04 µM)	relative viability (JZL-184 + OSI-027; first compound 0.4 µM)	relative viability (JZL-184 + OSI-027; first compound 1.265 µM)	relative viability (JZL-184 + OSI-027; first compound 4 µM)	relative viability (JZL-184 + Tozasertib; first compound 0.04 µM)	relative viability (JZL-184 + Tozasertib; first compound 0.4 µM)	relative viability (JZL-184 + Tozasertib; first compound 1.265 µM)	relative viability (JZL-184 + Tozasertib; first compound 4 µM)	relative viability (JZL-184 + Pemetrexed; first compound 0.04 µM)	relative viability (JZL-184 + Pemetrexed; first compound 0.4 µM)	relative viability (JZL-184 + Pemetrexed; first compound 1.265 µM)	relative viability (JZL-184 + Pemetrexed; first compound 4 µM)
HCC-366	1.21	1.03	1.07	1.06	0.986	0.889	0.931	0.958	1.04	0.868	0.97	0.825	0.133	0.508	0.109	0.0909	0.175	0.146	0.137	0.161
HCC-827	1.04	1.01	1.02	0.981	1.12	0.962	1.01	0.943	0.954	0.769	0.798	0.707	0.421	0.383	0.449	0.411	0.222	0.199	0.178	0.261
HOP-62	1.13	0.739	1.07	1.1	1.16	1.08	1.09	1.03	0.981	0.805	0.826	0.866	0.356	0.402	0.366	0.335	0.331	0.312	0.306	0.309
IA-LM	0.983	0.711	0.78	0.794	1.47	1.08	1.22	1.11												
LC-2-ad	0.467	0.248	0.491	0.369	1.13	0.847	0.886	0.955	0.92	0.926	0.907	0.734	0.451	0.429	0.511	0.385	0.293	0.278	0.279	0.265
LCLC-97TM1	0.362		0.663	0.269	1.01	0.981	0.979	0.867	0.493	0.393	0.504	0.559	0.41	0.177	0.242	0.242	0.166	0.17	0.13	0.201
LCLC-103H					0.833	0.682	0.724	0.529	0.525	0.528	0.428	0.455	0.488	0.521	0.521	0.529	0.495	0.481	0.453	0.477
LK-2	0.941	0.821	1.06	0.77	1.27	1.11	1.31	1.5	0.195	0.193	0.249	0.21	0.166	0.163	0.171	0.181	0.235	0.2	0.183	0.277
LOU-NH91	0.763	0.71	0.886	0.718	1.02	0.9	1.03	0.939	0.742	0.684	0.788	0.712	0.806	0.727	0.798	0.629	0.389	0.334	0.381	0.394
NCI-H358					0.758	0.722	0.72	0.649	0.826	0.716	0.79	0.712	0.104	0.118	0.0969	0.101	0.195	0.162	0.181	0.163
NCI-H522									0.906	0.748	0.748	0.748	0.668	0.5	0.618	0.563	1.23	0.981	1.02	1.16
NCI-H650					1.08	1.12	1.09	1.01	0.603	0.525	0.576	0.542	0.84	0.731	0.848	0.761	0.894	0.924	1.04	1.01
NCI-H661					1.07	1.01	0.992	1.01	0.806	0.638	0.761	0.53	0.364	0.354	0.337	0.325	0.983	0.858	0.931	0.898
NCI-H727	0.383	0.455	0.543	0.422	0.981	0.744	0.932	0.845	0.665	0.592	0.591	0.582	0.594	0.568	0.777	0.583				
NCI-H1792	0.889	0.624	0.675	0.612					0.683	0.744	0.779	0.62					1.05	0.699	1.1	0.812
NCI-H2342					1.04	1.11	1.26	1.12	0.614	0.548	0.617	0.704	0.432	0.399	0.485	0.449	0.654	0.732	0.78	0.778
SW 900					1.1	0.858	0.824	0.799	0.596	0.536	0.566	0.5	0.497	0.459	0.605	0.482	0.496	0.482	0.537	0.491
